Laboratory results: BindingDB's records for doi:10.1021/jm00403a011 (Bristol Myers Squibb, 1988)

Biological target: D(2) dopamine receptor (Rattus norvegicus, UniProt P61169)
Test: ChEBML_61437
Description: In vitro antagonistic activity against Dopamine receptor D2 was evaluated for the inhibition of [3H]spiperone binding

Sequence of D(2) dopamine receptor (P61169 whole entry): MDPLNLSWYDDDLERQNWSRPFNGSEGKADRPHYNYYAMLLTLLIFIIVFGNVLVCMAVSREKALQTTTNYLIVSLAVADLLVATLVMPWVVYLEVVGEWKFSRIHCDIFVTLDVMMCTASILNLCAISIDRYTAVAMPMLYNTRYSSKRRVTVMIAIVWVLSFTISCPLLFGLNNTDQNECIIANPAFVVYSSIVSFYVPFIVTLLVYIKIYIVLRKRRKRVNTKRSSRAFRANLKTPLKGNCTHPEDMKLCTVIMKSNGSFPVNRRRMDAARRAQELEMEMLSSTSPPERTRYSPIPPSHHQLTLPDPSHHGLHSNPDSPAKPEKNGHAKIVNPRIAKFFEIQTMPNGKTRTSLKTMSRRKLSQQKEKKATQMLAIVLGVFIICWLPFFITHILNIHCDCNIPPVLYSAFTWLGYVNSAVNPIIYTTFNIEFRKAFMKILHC

| IC50 | Compound |
| --- | --- |
| > 1000 nM | CCN(CC)CCNC(=O)c1cc(Cl)c(N)cc1OC(C)C(C)N=O (configuration not stated) [4-Amino-5-chloro-N-(2-diethylamino-ethyl)-2-(2-hydroxyimino-1-methyl-propoxy)-benzamide] |
| > 1000 nM | CCN(CC)CCNC(=O)c1cc(Cl)c(N)cc1OCC(C)N=O (configuration not stated) [4-Amino-5-chloro-N-(2-diethylamino-ethyl)-2-(2-hydroxyimino-propoxy)-benzamide] |
